The values that follow come from patent publication US20120165339A1, “CYCLOPROPANE DERIVATIVES” (EISAI R&D MANAGEMENT CO., LTD., priority 2010, published 2012).

Like-named read-outs stand apart in the source and are kept apart here. Bounds are passed on as bounds.

Assay [1] addresses T1, OX1 (Homo sapiens, UniProt O43613).
T1 sequence (O43613 1-425): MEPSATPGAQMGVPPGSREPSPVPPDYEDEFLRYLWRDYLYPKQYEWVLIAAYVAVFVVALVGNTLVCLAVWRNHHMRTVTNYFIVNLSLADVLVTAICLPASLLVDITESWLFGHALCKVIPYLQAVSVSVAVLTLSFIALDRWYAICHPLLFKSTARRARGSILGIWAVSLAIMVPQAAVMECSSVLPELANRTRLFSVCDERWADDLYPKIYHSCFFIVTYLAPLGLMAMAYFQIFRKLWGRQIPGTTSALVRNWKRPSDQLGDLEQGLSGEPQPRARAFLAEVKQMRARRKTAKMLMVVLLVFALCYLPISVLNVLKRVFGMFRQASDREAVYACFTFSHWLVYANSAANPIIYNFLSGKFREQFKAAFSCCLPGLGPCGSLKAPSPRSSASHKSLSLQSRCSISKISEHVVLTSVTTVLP
The assay can be described thus: Orexin-receptor binding ability, [125I]-OX-A, CHO cell membranes expressing OX1. Details: expressed in transfected cells; host or cells: CHO cells (membrane preparation). How it is done:
(§1) The assay was carried out using a 96-well Wheat Germ Agglutinin Flash Plate (PerkinElmer). The volume in a single assay well was 100 ul, and the composition of the reaction solution was as follows:
(§2) 25 mM HEPES (pH 7.5), 1 mM CaCl2, 4.5 mM MgCl2, 0.5% BSA (bovine serum albumin), 0.1% sodium azide, 0.05% Tween-20, and 0.2% DMSO.
Cell membranes were prepared from recombinant CHO cells that expressed OX2 or OX1. The cell membranes were used in an amount of 5 μg protein/assay. […] Finally, the radioactivity of each well was measured using a scintillation counter (TopCount, PerkinElmer). The obtained results are shown in terms of IC50 values (nM) in the following table.

The target of assay [2] is T2, OX2 (Homo sapiens, UniProt O43614).
T2 sequence (O43614 1-444): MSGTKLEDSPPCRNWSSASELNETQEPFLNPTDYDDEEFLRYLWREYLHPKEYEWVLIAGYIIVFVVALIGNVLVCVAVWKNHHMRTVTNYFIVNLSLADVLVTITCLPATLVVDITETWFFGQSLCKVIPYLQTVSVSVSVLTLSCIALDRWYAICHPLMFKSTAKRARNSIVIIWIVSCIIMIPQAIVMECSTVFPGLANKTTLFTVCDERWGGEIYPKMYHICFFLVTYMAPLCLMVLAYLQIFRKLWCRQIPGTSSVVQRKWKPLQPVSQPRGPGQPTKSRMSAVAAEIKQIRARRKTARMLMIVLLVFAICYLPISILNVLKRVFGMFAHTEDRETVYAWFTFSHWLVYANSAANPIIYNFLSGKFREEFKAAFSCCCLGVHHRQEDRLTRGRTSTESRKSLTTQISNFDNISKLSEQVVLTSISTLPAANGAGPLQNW
The assay can be described thus: Orexin-receptor binding ability, [125I]-OX-A, CHO cell membranes expressing OX2. Details: expressed in transfected cells; host or cells: CHO cells (membrane preparation). How it is done:
as §1, §2
Cell membranes were prepared from recombinant CHO cells that expressed OX2 or OX1. The cell membranes were used in an amount of 5 μg protein/assay. Test compound in various concentrations, and 0.2 nM [^125I]-OX-A as tracer were added to the cell membranes, and then allowed to react at room temperature for 30 minutes. After completion of the reaction, the reaction solution as a whole was discarded, and the wells were then washed once with 200 ul of wash buffer (25 mM HEPES (pH 7.5), 1 mM CaCl2, 5 mM MgCl2, 0.5% BSA, 0.1% sodium azide, 0.05% Tween-20, and 525 mM sodium chloride). Finally, the radioactivity of each well was measured using a scintillation counter (TopCount, PerkinElmer). The obtained results are shown in terms of IC50 values (nM) in the following table.

In assay [3] the target is T1, OX1. The assay can be described thus: Antagonism PLAP reporter assay, HEK-293 cells expressing human OX1. Format: cell-based. Details: expressed in transfected cells; host or cells: HEK-293 cell line, expression vector pBabeCLIH. The following applies: HEK-293, 1 nM human OX-A; IC50 converted to Ki by Cheng-Prusoff equation. How it is done:
(§3) The antagonistic function of the compound of the present invention to prevent the activation of OX2 and OX1 by orexin-A (OX-A), which is a natural peptide agonist, was measured using a cell-based reporter assay. A HEK-293 cell line expressing genetically recombinant human OX2 (accession No. NM_001526.3) or a HEK-293 cell line expressing genetically recombinant human OX1 (accession No. NM_001525.2), which had pBabeCLIH as expression vector, was used. The cells were plated at a density of 10,000 cells/well onto a non-coated 96-well plate in Dulbecco's modified Eagle medium (Sigma Cat No. D6046: 10% v/v heat-inactivated fetal bovine serum was contained). The cells were cultured at 37° C. overnight, so that they could adhere to the plate. On the following day, cells were incubated with a compound of the present invention dissolved in Dulbecco's modified Eagle medium (Sigma Cat No. A8806: 0.1% w/v bovine serum albumin was contained), and added to the cell plate to reach a final concentration of 0.1% dimethyl sulfoxide.
(§4) The thus obtained mixture was incubated at room temperature for 1 hour. Thereafter, human OX-A and forskolin were dissolved in the same medium as described above, which contained fetal bovine serum albumin, and the medium was then added to the cells, resulting in a final concentration of 300 nM forskolin. Subsequently, the cells were cultured at 37° C. for approximately 18 to 24 hours. During the culture, as a result of activation of the orexin receptor and subsequent dose-dependent increase in intracellular calcium concentration, a reporter enzyme, placental alkaline phosphatase (PLAP), was expressed under the control of a CRE x4+VIP promoter in a pBabeCLcre4vPdNN vector and secreted into the culture medium supernatant. On the following day, reporter enzyme activity was detected by mixing 5 ul of the culture medium supernatant with 20 ul of detection buffer (containing 1.34 g/L sodium bicarbonate, 1.27 g/L sodium carbonate and 0.2 g/L magnesium sulfate heptahydrate in water) and 25 ul of Lumi-Phos530 reagent (Wako Pure Chemical Industries Ltd.), followed by incubating the obtained mixture light-protected at room temperature for 2 hours, before performing luminescence measurement (ARVO Reader, PerkinElmer). The Kd value of human OX-A with respect to each receptor was measured by titration from 0 to 300 nM. Then, the IC50 value of the compound of the present invention with respect to the activity of 1 nM human OX-A was converted into a Ki value (nM) using the Cheng-Prusoff equation.
For orientation: Reporter assays use an easily measured gene product as a stand-in for the process of interest.

Assay [4] concerns the target T2, OX2. As to the kind of experiment: Antagonism PLAP reporter assay, HEK-293 cells expressing human OX2. The class given is cell-based. The arrangement: expressed in transfected cells; host or cells: HEK-293 cell line, expression vector pBabeCLIH. The following applies: HEK-293, 1 nM human OX-A; IC50 converted to Ki by Cheng-Prusoff equation. How it is done: as §3, §4

Where [5] appears, read: membranes of recombinant CHO cells, 0.2 nM [125I]-OX-A tracer, read-out: OX1 (IC50).
[6] abbreviates: membranes of recombinant CHO cells, 0.2 nM [125I]-OX-A tracer, read-out: OX2 (IC50).

By IC50 is commonly meant the concentration that inhibits the measured activity by half. Broadly, the Ki is the equilibrium dissociation constant of an inhibitor or competing ligand from its target. A high value points to a looser hold on the target.

`COc1ccc(OCC2(c3ccccc3)CC2C(=O)Nc2nc(C)cs2)cc1OC` (stereo not drawn) [Example 23, N-(4-methyl-1,3-thiazol-2-yl)-2-[(3,4-dimethoxyphenyl)oxymethyl]-2-phenylcyclopropanecarboxamide]: the IC50 was determined as 847 nM on OX1 [1] (setting [5]) and 14 nM on OX2 [2] (setting [6]). The Ki is 624 nM at OX1 [3] and 15.8 nM at OX2 [4].

As for `COc1ccc(OCC2(c3ccccc3)CC2C(=O)Nc2cncc(F)c2)cc1OC` (stereo not drawn) [Example 24, N-(5-fluoropyridin-3-yl)-2-[(3,4-dimethoxyphenyl)oxymethyl]-2-phenylcyclopropanecarboxamide], the results for the IC50 at OX1 [1] (setting [5]) and on OX2 [2] (setting [6]) were 805 nM and 48 nM, respectively. Moreover, the inhibitory constant (Ki) at OX1 [3] is greater than 816 nM; at OX2 [4], 83.5 nM.

`COc1ccc(OCC2(c3ccccc3)CC2C(=O)Nc2ccncc2C(F)(F)F)cc1OC` (stereo not drawn) [Example 25, N-(3-trifluoromethylpyridin-4-yl)-2-[(3,4-dimethoxyphenyl)oxymethyl]-2-phenylcyclopropanecarboxamide]: the IC50 amounted to 369 nM on OX1 [1] (setting [5]) and 27 nM at OX2 [2]. Also, the Ki is greater than 816 nM on OX1 [3] and 391 nM on OX2 [4].

Turning to `COc1ccc(OCC2(c3ccccc3)CC2C(=O)Nc2ccc(F)nc2)cc1OC` (stereo not drawn) [Example 26], the IC50 on OX1 [1] came to 27 nM; at OX2 [2] it was 43 nM. In addition, the Ki was determined as 70 nM at OX1 [3] and 12.8 nM on OX2 [4].

In the case of `COc1ccc(OCC2(c3ccccc3)CC2C(=O)Nc2cccc(F)n2)cc1OC` (stereo not drawn) [Example 27, N-(6-fluoropyridin-2-yl)-2-[(3,4-dimethoxyphenyl)oxymethyl]-2-phenylcyclopropanecarboxamide], the figures for the IC50 on OX1 [1] and on OX2 [2] were 37 nM and 4 nM, respectively. Moreover, the Ki on OX1 [3] turned out to be 98 nM; on OX2 [4], 3.4 nM.

`COc1ccc(OCC2(c3ccccc3)CC2C(=O)Nc2cc(Cl)ccn2)cc1OC` (stereo not drawn) [Example 28, N-(4-chloropyridin-2-yl)-2-[(3,4-dimethoxyphenyl)oxymethyl]-2-phenylcyclopropanecarboxamide]: the figures for the IC50 at OX1 [1] (setting [5]) and on OX2 [2] (setting [6]) were 38 nM and 25 nM, respectively. In addition, the results for the Ki on OX1 [3] and on OX2 [4] were 73.8 nM and 11 nM, respectively.

With `COc1cccc(NC(=O)C2CC2(COc2ccc(OC)c(OC)c2)c2ccccc2)c1` (stereo not drawn) [Example 34, N-(3-methoxyphenyl)-2-[(3,4-dimethoxyphenyl)oxymethyl]-2-phenylcyclopropanecarboxamide], the IC50 on OX1 [1] (setting [5]) turned out to be 20 nM; at OX2 [2] (setting [6]) it was 6 nM. Besides, the Ki at OX1 [3] was 24 nM; at OX2 [4] it was 4.5 nM.

In the case of `COc1ccc(OCC2(c3ccccc3)CC2C(=O)Nc2ccccc2-c2nnc[nH]2)cc1OC` (stereo not drawn) [Example 35, N-[2-(1H-1,2,4-triazol-3-yl)phenyl]-2-[(3,4-dimethoxyphenyl)oxymethyl]-2-phenylcyclopropanecarboxamide], the values for the IC50 at OX1 [1] (setting [5]) and on OX2 [2] (setting [6]) were 2040 nM and 47 nM, respectively. Also, the Ki worked out at 1900 nM at OX1 [3] and 122 nM at OX2 [4].

With `COc1ccc(OCC2(c3ccccc3)CC2C(=O)Nc2cc(C)ccn2)cc1OC` (stereo not drawn) [Example 36, N-(4-methylpyridin-2-yl)-2-[(3,4-dimethoxyphenyl)oxymethyl]-2-phenylcyclopropanecarboxamide], the figures for the IC50 at OX1 [1] (setting [5]) and on OX2 [2] (setting [6]) were 283 nM and 22 nM, respectively. For the same compound, the Ki on OX1 [3] turned out to be 699 nM; at OX2 [4], 43 nM.

For `COc1ccc(OCC2(c3ccccc3)CC2C(=O)Nc2cccc(C)n2)cc1OC` (stereo not drawn) [Example 37, N-(6-methylpyridin-2-yl)-2-[(3,4-dimethoxyphenyl)oxymethyl]-2-phenylcyclopropanecarboxamide], the IC50 was determined as 403 nM on OX1 [1] (setting [5]) and 18 nM at OX2 [2] (setting [6]). Besides, the inhibition constant (Ki) at OX1 [3] stood at 593 nM; on OX2 [4], 14 nM.

Regarding `COc1ccc(OCC2(c3ccccc3)CC2C(=O)Nc2cc(C)ns2)cc1OC` (stereo not drawn) [Example 40, N-(3-methylisothiazol-5-yl)-2-[(3,4-dimethoxyphenyl)oxymethyl]-2-phenylcyclopropanecarboxamide], the IC50 was found to be 1050 nM at OX1 [1] (setting [5]) and 36 nM at OX2 [2] (setting [6]). For the same compound, the Ki came out at 752 nM at OX1 [3] and 51.5 nM on OX2 [4].

As to `COc1ccc(OC[C@@]2(c3ccccc3)C[C@H]2C(=O)Nc2ccccn2)cc1OC` [Example 41, (1R,2S)—N-(pyridin-2-yl)-2-[(3,4-dimethoxyphenyl)oxymethyl]-2-phenylcyclopropanecarboxamide], the IC50 came out at 374 nM on OX1 [1] (setting [5]) and 35 nM at OX2 [2] (setting [6]). For the same compound, the inhibition constant Ki on OX1 [3] amounted to 297 nM; at OX2 [4], 24.8 nM.

`CCn1cc(OCC2(c3ccccc3)CC2C(=O)Nc2ccc(Cl)cn2)ccc1=O` (stereo not drawn) [Example 54, N-(5-chloropyridin-2-yl)-2-[(1-ethyl-6-oxo-1,6-dihydropyridin-3-yl)oxymethyl]-2-phenylcyclopropanecarboxamide]: the IC50 on OX1 [1] (setting [5]) was 61 nM; at OX2 [2] (setting [6]) it was 3 nM. Further, the Ki on OX1 [3] came out at 37.5 nM; at OX2 [4], 0.8 nM.

Take `CCn1cc(OCC2(c3ccccc3)CC2C(=O)Nc2ccc(C#N)cn2)ccc1=O` (stereo not drawn) [Example 55]: the IC50 on OX1 [1] (setting [5]) came out at 675 nM; on OX2 [2] (setting [6]) it was 33 nM. Besides, the Ki was greater than 467 nM at OX1 [3] and 43.6 nM at OX2 [4].

For `CCn1nc(C)cc1OCC1(c2ccccc2)CC1C(=O)Nc1ccc(Cl)cn1` (stereo not drawn) [Example 57], the IC50 turned out to be 483 nM at OX1 [1] (setting [5]) and 46 nM on OX2 [2] (setting [6]). In addition, the Ki was greater than 467 nM on OX1 [3] and 31.7 nM on OX2 [4].
